In PMC4769088, “Antifungal Activity and Action Mechanism of Histatin 5-Halocidin Hybrid Peptides against Candida ssp” (PLoS ONE, 2016):
Where a SMILES comes first, the peptide text is derived from it. Bridges are numbered along the chain shown (N, C = ends). Roman numbers before positions name the chains, in order. Where no end group is shown, it is not given here.

Key:
Candida cells = test: ROS production (DCFH-DA fluorometric assay); format: cell-based, Candida albicans; conditions: 32 μg/ml peptide, 120 min, 10 μM DCFH-DA, ex 485 / em 530 nm
Description: The amount of ROS produced by Candida cells treated with peptides was measured by a fluorometric assay with DCFHDA as described earlier. Briefly, the cells were adjusted to an OD600 of 1 in 10 ml of NaPB and centrifuged at 5000 ×g for 10 min. The cell pellet was then resuspended in NaPB and treated with peptides alone or with ascorbic acid. After the addition of 10 μM 2`,7`dichlorofluorescein diacetate (DCFH-DA), the fluorescence intensity of the induced ROS production was recorded every 10 min at excitation and emission wavelengths of 485 nm and 530 nm, respectively, in a Perkin Elmer 2030 Reader (Victor X3).  Fig 7 The effect of peptides on ROS generation. Time-dependency of DCF fluorescence as a measure of ROS generation (A) and killing activity (B) were determined in Candida cells treated with peptides (32 μg/ml) or peptides + Ascorbic acid (200 μg/ml) by Perkin Elmer 2030 reader (VictorX 3) and colony count assay, respectively. The fluorescence obtained with the cells treated with 10 mM of H2O2 served as positive control and the cells without peptide served as negative control. The fluorescent intensity of DCF was recorded every 10 min for 120 min at excitation and emission wavelengths of 485 and 530 nm, respectively.

Candida albicans = format: cell-based; conditions: for reduction of cell viability: 1 μg/ml peptide, in 1 hour, colony count assay
Description: The candidacidal activities of the peptides were tested by using standard microdilution plate assays, radial diffusion assays and broth dilution assay slightly modified from the procedure recommended by the National Committee for Clinical Laboratory Standards. For the candidacidal assays, C. albicans cells were grown in YPD medium and washed twice with 10 mM sodium phosphate buffer (NaPB; Na2HPO4, NaH2PO4, pH 7.4). The cells (1 x 10^6) were then mixed with different concentrations of peptides and incubated at 30°C with constant shaking for 60 min. For energy depletion experiments, cells were pre-incubated with 10 mM NaPB containing 5 mM NaN3 at 30°C for 60 min before the addition of peptides. The cell suspensions were diluted in 10 mM NaPB and aliquots of 500 cells were spread onto YPD agar plates then incubated for 24 h at 30°C to visualize the surviving colonies. Cell survival was expressed as a percentage of that for the control, and the loss of viability was calculated as [1 x (number of colonies from peptide-treated cells/number of colonies from control cells)] x 100. Candidacidal assays were performed in triplicate. For the radial diffusion assay, C. albicans cells were grown in YPD medium overnight and washed twice with 10 mM NaPB. Washed yeast-phase C. albicans cells (1 x 10^6 CFU) were trapped in thin underlay gels containing 9 mM sodium phosphate, 1 mM sodium citrate buffer, 1% (wt/vol) agarose (A6013; Sigma), and 0.3 mg of Sabouraud dextrose broth (Difco)/ml. After incubation at 37°C for 3 h, a 10 ml overlay gel of 1% agarose and 6% Sabouraud dextrose broth was poured on the underlay gel and then the plates were incubated overnight at 37°C. The clear-zone diameters were measured to the nearest 0.1 mm and graphed against the peptide concentration. Zone diameters were expressed in units (0.1 mm = 1 unit). For the broth dilution assay, the Candida strains were cultured in LYM broth for 18 h at 30°C. The numbers of yeasts were counted using a hemocytometer. […] The antifungal activities were evaluated after 24 h of incubation at 30°C by the observation of visible turbidity the wells. The MIC values were expressed as intervals (a–b), with a representing the highest tested concentration at which microbes continue to grow, and b representing the lowest concentration at which growth inhibition could be detected.
Fig 4 Killing kinetics of Hst5, P113, di-18Hc, hybrid peptides against Candida albicans. Killing kinetics of peptides against C. albicans was measured by colony count assay. Candida cells were treated with a different concentration of peptides at a determined time. […] Killing percent was calculated with the following equation: Killing % = (number of control cell—number of treated cell)/control cell × 100.

Compound: AKRHHGYKRKFH-NH2 [P113]
- DCF fluorescence intensity (ROS generation) (Candida cells): constant increase in fluorescence intensity

Compound: CC(C)C[C@H](NC(=O)[C@@H](N)Cc1c[nH]c2ccccc12)C(=O)N[C@@H](CC(N)=O)C(=O)N[C@@H](C)C(=O)N[C@@H](CCCCN)C(=O)N[C@@H](CCCNC(=N)N)C(=O)N[C@@H](Cc1c[nH]cn1)C(=O)N[C@@H](Cc1c[nH]cn1)C(=O)NCC(=O)N[C@@H](Cc1ccc(O)cc1)C(=O)N[C@@H](CCCCN)C(=O)N[C@@H](CSSC[C@H](NC(=O)[C@H](CCCCN)NC(=O)[C@H](Cc1ccc(O)cc1)NC(=O)CNC(=O)[C@H](Cc1c[nH]cn1)NC(=O)[C@H](Cc1c[nH]cn1)NC(=O)[C@H](CCCNC(=N)N)NC(=O)[C@H](CCCCN)NC(=O)[C@H](C)NC(=O)[C@H](CC(N)=O)NC(=O)[C@H](CC(C)C)NC(=O)[C@@H](N)Cc1c[nH]c2ccccc12)C(=O)N[C@@H](CCCCN)C(=O)N[C@@H](Cc1ccccc1)C(=O)N[C@@H](Cc1c[nH]cn1)C(N)=O)C(=O)N[C@@H](CCCCN)C(=O)N[C@@H](Cc1ccccc1)C(=O)N[C@@H](Cc1c[nH]cn1)C(N)=O [di-WP2] (I: H-WLNAKRHHGYKCKFH-NH2 / II: H-WLNAKRHHGYKCKFH-NH2; disulfide I:12-II:12 (inferred); N-terminus assumed)
- DCF fluorescence intensity (ROS generation) (Candida cells): little fluorescence
- reduction of cell viability (Candida albicans): 99%

Compound: CC(C)C[C@H](NC(=O)CNC(=O)[C@H](Cc1c[nH]cn1)NC(=O)[C@H](Cc1c[nH]cn1)NC(=O)[C@H](CC(C)C)NC(=O)[C@H](CC(C)C)NC(=O)[C@H](C)NC(=O)[C@H](CC(N)=O)NC(=O)[C@H](CC(C)C)NC(=O)[C@@H](N)Cc1c[nH]c2ccccc12)C(=O)N[C@@H](CC(N)=O)C(=O)N[C@@H](CSSC[C@H](NC(=O)[C@H](CC(N)=O)NC(=O)[C@H](CC(C)C)NC(=O)CNC(=O)[C@H](Cc1c[nH]cn1)NC(=O)[C@H](Cc1c[nH]cn1)NC(=O)[C@H](CC(C)C)NC(=O)[C@H](CC(C)C)NC(=O)[C@H](C)NC(=O)[C@H](CC(N)=O)NC(=O)[C@H](CC(C)C)NC(=O)[C@@H](N)Cc1c[nH]c2ccccc12)C(=O)N[C@@H](C)C(=O)N[C@@H](CCCCN)C(=O)NCC(=O)N[C@H](C(=O)N[C@@H](CC(C)C)C(=O)N[C@@H](C)C(N)=O)C(C)C)C(=O)N[C@@H](C)C(=O)N[C@@H](CCCCN)C(=O)NCC(=O)N[C@H](C(=O)N[C@@H](CC(C)C)C(=O)N[C@@H](C)C(N)=O)C(C)C [di-18Hc, reference compound] (I: H-WLNALLHHGLNCAKGVLA-NH2 / II: H-WLNALLHHGLNCAKGVLA-NH2; disulfide I:12-II:12 (inferred); N-terminus assumed)
- DCF fluorescence intensity (ROS generation) (Candida cells): little fluorescence
- reduction of cell viability (Candida albicans): 99%
- killing kinetics (time) (Candida albicans; membrane-attacking peptide with fast kinetics): ≤ 30 s

Compound: C[C@H](NC(=O)[C@H](Cc1c[nH]cn1)NC(=O)[C@H](CO)NC(=O)[C@@H](N)CC(=O)O)C(=O)N[C@@H](CCCCN)C(=O)N[C@@H](CCCNC(=N)N)C(=O)N[C@@H](Cc1c[nH]cn1)C(=O)N[C@@H](Cc1c[nH]cn1)C(=O)NCC(=O)N[C@@H](Cc1ccc(O)cc1)C(=O)N[C@@H](CCCCN)C(=O)N[C@@H](CCCNC(=N)N)C(=O)N[C@@H](CCCCN)C(=O)N[C@@H](Cc1ccccc1)C(=O)N[C@@H](Cc1c[nH]cn1)C(=O)N[C@@H](CCC(=O)O)C(=O)N[C@@H](CCCCN)C(=O)N[C@@H](Cc1c[nH]cn1)C(=O)N[C@@H](Cc1c[nH]cn1)C(=O)N[C@@H](CO)C(=O)N[C@@H](Cc1c[nH]cn1)C(=O)N[C@@H](CCCNC(=N)N)C(=O)NCC(=O)N[C@@H](Cc1ccc(O)cc1)C(=O)O [Hst 5, Histatin 5]
- DCF fluorescence intensity (ROS generation) (Candida cells): constant increase in fluorescence intensity

Compound: CC(C)C[C@H](NC(=O)CNC(=O)[C@H](Cc1c[nH]cn1)NC(=O)[C@H](Cc1c[nH]cn1)NC(=O)[C@H](CCCNC(=N)N)NC(=O)[C@H](CCCCN)NC(=O)[C@H](C)N)C(=O)N[C@@H](CC(N)=O)C(=O)N[C@@H](CSSC[C@H](NC(=O)[C@H](CC(N)=O)NC(=O)[C@H](CC(C)C)NC(=O)CNC(=O)[C@H](Cc1c[nH]cn1)NC(=O)[C@H](Cc1c[nH]cn1)NC(=O)[C@H](CCCNC(=N)N)NC(=O)[C@H](CCCCN)NC(=O)[C@H](C)N)C(=O)N[C@@H](C)C(=O)N[C@@H](CCCCN)C(=O)N[C@@H](Cc1ccccc1)C(=O)N[C@@H](Cc1c[nH]cn1)C(N)=O)C(=O)N[C@@H](C)C(=O)N[C@@H](CCCCN)C(=O)N[C@@H](Cc1ccccc1)C(=O)N[C@@H](Cc1c[nH]cn1)C(N)=O [di-PH2] (I: H-AKRHHGLNCAKFH-NH2 / II: H-AKRHHGLNCAKFH-NH2; disulfide I:9-II:9 (inferred); N-terminus assumed)
- DCF fluorescence intensity (ROS generation) (Candida cells): constant increase in fluorescence intensity
- reduction of cell viability (Candida albicans): 99%
